Assay [1] concerns Pseudomonas aeruginosa. The assay can be described thus: Antibiofilm activity against Pseudomonas aeruginosa PAO1 assessed as inhibition of biofilm formation at 1 to 100 uM incubated for 24 hrs by crystal violet staining based assay relative to control. Set-up: scale not given: the % may be the effect or the level left. As to conditions: dose 1-100 µM. Type of assay: functional.

In assay [2] the test system is Pseudomonas aeruginosa. The assay can be described thus: Antibacterial activity against Pseudomonas aeruginosa ATCC 27853 assessed as bacterial growth inhibition by agar diffusion assay. Type of assay: functional. (In general: In agar diffusion tests the substance spreads into inoculated agar from a disc or well.)
The subject of assay [3] is Pseudomonas aeruginosa. The assay can be described thus: Antibacterial activity against Pseudomonas aeruginosa ATCC 27853. Type of assay: functional, organism-based.
Assay [4] deals with Pseudomonas aeruginosa. The assay can be described thus: Downregulation of rhlA mRNA level in Pseudomonas aeruginosa PAO1 at 10 uM by RT-qPCR analysis. The format is functional. Background: Quantitative PCR measures a nucleic acid by following its amplification.
Assay [5] is described as follows: Inhibition of quorum sensing system in Pseudomonas aeruginosa PAO1 expressing lasB-gfp assessed as inhibition of lasB expression at 50 ug/ml incubated for 8 hrs by microplate reader based analysis relative to control. Particulars: dose 50.0 µg/ml.
In assay [6] the test system is Pseudomonas aeruginosa. Nature of the assay: Antibiofilm activity against Pseudomonas aeruginosa ATCC 27853 assessed as reduction in biofilm biomass at 16 ug/ml relative to control. Details: scale not given: the % may be the effect or the level left. The format is functional. As to conditions: dose 16 µg/ml.
For assay [7], the system named is Pseudomonas aeruginosa. Nature of the assay: Antibiofilm activity against Pseudomonas aeruginosa ATCC 27853 assessed as reduction in biofilm formation at 10 uM relative to control. Set-up: scale not given: the % may be the effect or the level left. Type of assay: functional.
For assay [8], the system named is Pseudomonas aeruginosa. Nature of the assay: Downregulation of pqsR mRNA expression in Pseudomonas aeruginosa PAO1. The format is functional.
For assay [9], the system named is Pseudomonas aeruginosa. The assay can be described thus: Antivirulence activity against Pseudomonas aeruginosa PAO1 assessed as inhibition of rhamnolipid production at 16 ug/ml relative to control. As to conditions: dose 16 µg/ml. Set-up: scale not given: the % may be the effect or the level left. Type of assay: functional.
The subject of assay [10] is Pseudomonas aeruginosa. Nature of the assay: Antivirulence activity against Pseudomonas aeruginosa PAO1 assessed as inhibition of pyocyanin production at 16 ug/ml relative to control. Set-up: scale not given: the % may be the effect or the level left. As to conditions: dose 16 µg/ml. The format is functional.
Assay [11] deals with Pseudomonas aeruginosa. Nature of the assay: Antibiofilm activity against Pseudomonas aeruginosa PAO1 assessed as inhibition of biofilm formation at 16 ug/ml incubated for 24 hrs by crystal violet staining based assay relative to control. Type of assay: functional. Set-up: scale not given: the % may be the effect or the level left. As to conditions: dose 16 µg/ml.
The test system of assay [12] is Pseudomonas aeruginosa. Nature of the assay: Antibacterial activity against Pseudomonas aeruginosa PAO1 by broth microdilution method. The format is functional.
For assay [13], the system named is Pseudomonas aeruginosa. The assay can be described thus: Downregulation of pqsA mRNA expression in Pseudomonas aeruginosa PAO1. Type of assay: functional.
In assay [14] the test system is Pseudomonas aeruginosa. The assay can be described thus: Antibiofilm activity against Pseudomonas aeruginosa ATCC 15442 assessed as inhibition of biofilm formation at 16 ug/ml relative to control. The format is functional. Set-up: scale not given: the % may be the effect or the level left. Particulars: dose 16 µg/ml.
Assay [15] concerns Pseudomonas aeruginosa. Nature of the assay: Antibacterial activity against Pseudomonas aeruginosa ATCC 15442 assessed as reduction in bacterial cell growth incubated for 18 hrs by two fold serial microdilution method. Type of assay: functional. In general terms: In broth dilution the organism is exposed to a series of concentrations in liquid medium.
Assay [16] relates to Pseudomonas aeruginosa. Nature of the assay: Antibiofilm activity against Pseudomonas aeruginosa assessed as reduction in biofilm formation incubated for 24 hrs relative to control. The format is functional. Details: scale not given: the % may be the effect or the level left.
Assay [17] concerns Pseudomonas aeruginosa. The assay can be described thus: Antimicrobial activity against Pseudomonas aeruginosa assessed as reduction in microbial growth. Type of assay: functional, organism-based.
Assay [18] relates to Pseudomonas aeruginosa. Nature of the assay: Antimicrobial activity against Pseudomonas aeruginosa PAO1 assessed as inhibition of bacterial growth measured for 18 hrs by CLSI-based broth microdilution method. The format is functional.
Assay [19] concerns Pseudomonas aeruginosa. Nature of the assay: Antibacterial activity against Pseudomonas aeruginosa PAO1 assessed as reduction in bacterial growth by broth microdilution method. The format is functional, organism-based.
The nature of assay [20]: Inhibition of quorum sensing system in Pseudomonas aeruginosa PAO1 expressing lasI-gfp assessed as inhibition of lasI expression at 50 ug/ml incubated for 8 hrs under shaking condition by microplate reader based analysis relative to control. Particulars: dose 50.0 µg/ml.
For assay [21], the system named is Pseudomonas aeruginosa. The assay can be described thus: Antivirulence activity in Pseudomonas aeruginosa PAO1 assessed as reduction in elastase production at 10 uM incubated for 24 hrs by elastin-congo red dye based absorbance assay relative to control. Details: scale not given: the % may be the effect or the level left. The format is functional.
The subject of assay [22] is Pseudomonas aeruginosa. Nature of the assay: Antibacterial activity against Pseudomonas aeruginosa PAO1 assessed as reduction in bacterial growth. Type of assay: functional.
For assay [23], the system named is Pseudomonas aeruginosa. The assay can be described thus: Antivirulence activity against Pseudomonas aeruginosa PAO1 assessed as reduction in pyocyanin production at 20 ug/ml relative to control. The format is functional. Details: scale not given: the % may be the effect or the level left. As to conditions: dose 20 µg/ml.
For assay [24], the system named is Pseudomonas aeruginosa. Nature of the assay: Antibiofilm activity against Pseudomonas aeruginosa PAO1 assessed as inhibition of biofilm formation at 16 microg/ml incubated for 20 hrs by crystal violet staining based analysis. The format is functional. Details: scale not given: the % may be the effect or the level left. Particulars: dose 16 µg/ml.
The nature of assay [25]: Inhibition of quorum sensing system in Pseudomonas aeruginosa PAO1-rhlA-gfp assessed as inhibition of rhlA expression at 50 ug/ml incubated for 8 hrs by microplate reader based analysis relative to control. As to conditions: dose 50.0 µg/ml.
The test system of assay [26] is Pseudomonas aeruginosa. Nature of the assay: Anti-virulence activity in Pseudomonas aeruginosa PAO1 assessed as reduction in pyoverdine production at 160 ug/ml by absorbance based analysis relative to control. The format is functional. Details: scale not given: the % may be the effect or the level left. Particulars: dose 160 µg/ml.
For assay [27], the system named is Pseudomonas aeruginosa. The assay can be described thus: Antivirulence activity in Pseudomonas aeruginosa PAO1 assessed as reduction in pyocyanin production at 10 uM incubated for 24 hrs by absorbance based analysis relative to control. The format is functional. Details: scale not given: the % may be the effect or the level left.

Converted amounts (≈) assume the structure as drawn.

This is an account of results in ChEMBL document CHEMBL6153025, “Multidrug-resistant bacteria quorum-sensing inhibitors: A particular focus on Pseudomonasaeruginosa” (Eur J Med Chem, 2025).

As to `Oc1ccc([C@H]2Oc3cc(O[C@H]4OC[C@@H](O)[C@@H](O)[C@@H]4O)cc(O)c3C[C@H]2O)cc1O`, the Activity with Pseudomonas aeruginosa [1] worked out at 66%.

As to `COc1cccc(C(=O)CSc2nc3ccccc3s2)c1`, the MIC in the assay on Pseudomonas aeruginosa [2] is > 512 µg/mL. In the assay on Pseudomonas aeruginosa [3], this compound registered an IC50 of 182 µg/mL (≈ 578 µM).

As to `CC1=C(/C=C/C(C)=C/C=C/C(C)=C/C=C/C=C(C)/C=C/C=C(C)/C=C/C2=C(C)C[C@@H](O)CC2(C)C)C(C)(C)C[C@H](O)C1` [ZEAXANTHIN], the Activity in the assay on Pseudomonas aeruginosa [4] is 43%. Also, the inhibition in assay [5] turned out to be 67.8%.

Regarding `Cc1ccc(CCOC(=O)/C=C/c2ccc(O)c(O)c2)cc1`, in the assay with Pseudomonas aeruginosa [6], the Activity is recorded as 22.67%.

With `COc1ccc(C(=O)CSc2nc3ccccc3s2)c(OC)c1`, the MIC in the assay on Pseudomonas aeruginosa [2] is > 512 µg/mL. In the assay on Pseudomonas aeruginosa [3], the IC50 stood at 45.5 µg/mL (≈ 132 µM).

Turning to `CCCCCCCCSSc1nc2ccccc2c(=O)[nH]1`, the Activity with Pseudomonas aeruginosa [7] came out at 46%.

With `O=C(/C=C/c1ccc(O)c(O)c1)OCCc1ccc(Cl)cc1`, the Activity in the assay on Pseudomonas aeruginosa [6] turned out to be 30.41%.

For the compound `O=C(O)/C=C/c1ccc(O)c(O)c1` [CAFFEIC ACID], the Activity with Pseudomonas aeruginosa [6] is recorded as 33%.

For `C=CCSSc1nc2ccccc2c(=O)[nH]1`, the Activity in the assay with Pseudomonas aeruginosa [7] is 46%.

For the compound `COc1ccc([C@H](CNC(=O)Nc2ccccc2F)c2c[nH]c3ccccc23)cc1OC`, the Activity was determined as 90% in the assay with Pseudomonas aeruginosa [8]; 66.4% in the assay on Pseudomonas aeruginosa [9]; 74.27% in the assay with Pseudomonas aeruginosa [10]; 67.32% with Pseudomonas aeruginosa [11]; 90% with Pseudomonas aeruginosa [13]. Also, the MIC against Pseudomonas aeruginosa [12] is 500 µM (≈ 217 µg/mL).

Take `O=c1c2c(Cl)cccc2ncn1Cc1ccc(NCc2ccco2)cc1`: the Activity in the assay with Pseudomonas aeruginosa [14] is on record as 26.7%. For the same compound, the MIC in the assay on Pseudomonas aeruginosa [15] is > 50 µM.

For the compound `O=C1c2ccc(NS(=O)(=O)c3ccc(F)cc3)cc2OC2C=C(O)C=C(O)C12` (centres undefined), the Activity in the assay with Pseudomonas aeruginosa [16] came out at 78%. In the assay on Pseudomonas aeruginosa [17], the IC50 was determined as 100 µM.

Consider `Cc1nc2cccc(Br)c2c(=O)n1/N=C/C=C/c1ccccc1`, for which the Activity in the assay with Pseudomonas aeruginosa [14] worked out at 58%. Besides, in the assay with Pseudomonas aeruginosa [15], the MIC was > 50 µM.

As to `COc1ccc(-c2cc(=O)c3c(O)cc(O)cc3o2)cc1` [ACACETIN], the values for the Activity in the assay with Pseudomonas aeruginosa [9] and in the assay with Pseudomonas aeruginosa [10] were 67% and 53%, respectively. Moreover, the MIC in the assay on Pseudomonas aeruginosa [18] turned out to be 0.48 µg/mL (≈ 1.69 µM).

On to `CC(C)c1ccc(/C=C/C(=O)c2ccc(NCC(=O)N[C@@H]3CCOC3=O)cc2)cc1`, for which the MIC in the assay with Pseudomonas aeruginosa [19] worked out at 5 µM (≈ 2.03 µg/mL).

Turning to `O=c1cc(-c2ccc(O)cc2)oc2cc(O)cc(O)c12` [APIGENIN], the MIC with Pseudomonas aeruginosa [18] was determined as 0.48 µg/mL (≈ 1.78 µM).

With `Cc1ccc(CCC(=O)NC2CCOC2=O)cc1` (centres undefined), the figures for the inhibition in assay [20] and in assay [25] were 82% and 91%, respectively. Also, the Activity was determined as 52% in the assay with Pseudomonas aeruginosa [21], 66% in the assay on Pseudomonas aeruginosa [23] and 52% with Pseudomonas aeruginosa [24]. In the assay on Pseudomonas aeruginosa [22], the MIC is 10 µM (≈ 2.47 µg/mL).

In the assay with Pseudomonas aeruginosa [4], `COc1cc(C)c(C(=O)Oc2cc(C)c(C(=O)O)c(O)c2)c(O)c1` [EVERNIC ACID] registered an Activity of 50%. Moreover, the inhibition in assay [5] worked out at 54%.

With `O=C1O/C(=C\Br)C=C1Br`, the IC50 in the assay with Pseudomonas aeruginosa [19] was 17.4 µM.

Take `CCCCCCn1ccnc1`: the Activity with Pseudomonas aeruginosa [26] is given as 60%; in the assay on Pseudomonas aeruginosa [27], 97%.

As for `O=C(COc1ccc(C(=O)/C=C/c2ccccc2Cl)cc1)N[C@H]1CCOC1=O`, the MIC in the assay with Pseudomonas aeruginosa [19] amounted to 5 µM (≈ 2 µg/mL).

`O=C(CN[C@H]1CCOC1=O)Nc1ccc(C/C=C/c2ccc(Cl)c(Cl)c2)cc1`: in the assay with Pseudomonas aeruginosa [19], the MIC turned out to be 5 µM (≈ 2.1 µg/mL).

As for `O=C1c2ccc(NS(=O)(=O)c3ccc(Cl)cc3)cc2OC2C=C(O)C=C(O)C12` (centres undefined), the Activity in the assay with Pseudomonas aeruginosa [16] is given as 50%. Further, in the assay on Pseudomonas aeruginosa [17], the IC50 turned out to be 100 µM.

The term MIC denotes the lowest concentration found to suppress growth. As usually defined, the IC50 is the point on the concentration scale where inhibition reaches its midpoint. In general, inhibition refers to the share of the control response that was lost under treatment.
